# Experimental data reported in ChEMBL document CHEMBL4402605, “A Chemical Switch for Transforming a Purine Agonist for Toll-like Receptor 7 to a Clinically Relevant Antagonist” (J Med Chem, 2020).
# Activity calls are given as the source filed them. No cut-off for these calls is given here.
# What was measured:
# [1] = Half life in C57BL/6 mouse at 15 mg/kg, po administered via gavage by LC-MS/MS analysis; details: in vivo
# [2] = Clearance in human liver microsomes at 100 uM by LC-MS/MS analysis relative to hepatic blood flow
# Mus musculus [3] = assay: (§1) Protection against imiquimod-induced C57BL/6 mouse model of psoriasis assessed as decrease in skin thickening at 15 mg/kg, po administered via gavage treated 1 day prior to imiquimod application and subsequent daily dosing for 7 consecutive days and measured post-last dose; assay type: functional, organism-based
# [4] = Toxicity in C57BL/6 mouse assessed as change in liver parenchymal architecture at 15 mg/kg, po administered once daily via gavage for 7 consecutive days and measured post-last dose by H and E staining based histomorphological analysis; assay type: organism-based; details: in vivo
# [5] = AUC (0 to 24 hrs) in C57BL/6 mouse at 15 mg/kg, iv by LC-MS/MS analysis; assay type: ADME, organism-based; set-up: time < 24 hr, dose 15 mg/kg, route intravenous; details: in vivo
# Mus musculus [6] = assay: as §1, with “reduction” for “decrease”, “IFIT1 mRNA expression” for “skin thickening”, “dose by SYBR green dye based qPCR analysis” for “dose”; assay type: functional, organism-based
# [7] = Toxicity in C57BL/6 mouse assessed as change in lung microanatomy at 15 mg/kg, po administered once daily via gavage for 7 consecutive days and measured post-last dose by H and E staining based histomorphological analysis; assay type: organism-based; details: in vivo
# Mus musculus [8] = assay: as §1, with “suppression of acanthosis” for “decrease in skin thickening”, “dose by H and E staining based histopathological analysis” for “dose”; assay type: functional
# [9] = Cmax in C57BL/6 mouse at 15 mg/kg, po administered via gavage by LC-MS/MS analysis; assay type: ADME, organism-based; set-up: dose 15 mg/kg, route oral; details: in vivo
# Mus musculus [10] = assay: as §1, with “suppression of vascular dilatation” for “decrease in skin thickening”, “dose by H and E staining based histopathological analysis” for “dose”; assay type: functional
# [11] = Volume of distribution at steady state in C57BL/6 mouse at 15 mg/kg, iv by LC-MS/MS analysis; assay type: ADME, organism-based; details: in vivo
# in vitro = details: mouse, plasma
# Description: Stability of the compound in mouse plasma assessed as parent compound remaining at 25 uM measured after 2 hrs by LC-MS/MS analysis
smiles,measurement,setting,value
CCN1CCN(CCCn2cnc3c(N4CCN(CC)CC4)ncnc32)CC1,half-life,[1],4.6 h
same,hepatic extraction ratio at 100 µM,[2],0.265
same,Activity,Mus musculus [3],Active
same,Activity,[4],Non-Toxic
same,AUC(0-t) at 24 h,[5],50900 ng·h/mL
same,Activity,Mus musculus [6],Active
same,Activity,[7],Non-Toxic
same,Activity,Mus musculus [8],100%
same,Cmax,[9],2600 ng/mL
same,Activity,Mus musculus [10],100%
same,Vdss,[11],4.2 L/kg
same,"remaining at 2 h, 25 µM",in vitro,99.2%
